Consider 13 compounds from patent US12338256B2, “Aza-tetracyclic oxazepine compounds and uses thereof” (Genentech, Inc., priority 2022, dated 2025).

Assay type in all cases: cell-based
In assay [1] the test system is AsPC-1 (homozygous mutant KRAS G12D human pancreatic cell line). Kind of assay: KRAS 3D-Cell Proliferation Assay, AsPC-1 (Example 503). The following applies: Homo sapiens, ASPC1, 168 h, AsPC-1 3D culture, 7 days, CellTiter-Glo 3D; read-out: Prolif AsPC-1 3D ATP IC50. The gist of the method: (§1)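 3D culture, ultra-low attachment wells; RPMI-1640/10% FBS/2 mM L-glutamine. Overnight settle, then compound series, 0.3% DMSO final, 7 d, 37° C, 5% CO2. Readout: CellTiter-Glo 3D luminescence. % inhibition vs DMSO (0%) and 1 μM staurosporine (100%); IC50 via 4-parameter Hill.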
In general terms: ATP-based viability assays read luminescence as a measure of living cells.

For assay [2], the system named is PC-9 (KRAS wild type human lung adenocarcinoma cell line). Kind of assay: KRAS 3D-Cell Proliferation Assay, PC-9 (Example 503). The following applies: 168 h, PC-9 3D culture, 7 days, CellTiter-Glo 3D, read-out: Prolif PC9 3D ATP IC50. The gist of the method:
as §1

Assay [3] relates to H1975 (KRAS wild type human lung adenocarcinoma cell line). Kind of assay: KRAS 3D-Cell Proliferation Assay, H1975 (Example 503). The settings on record: Homo sapiens, NCI-H1975, 168 h, H1975 3D culture, 7 days, CellTiter-Glo 3D; read-out: Prolif H1975 3D ATP IC50. The gist of the method:
as §1

For assay [4], the system named is HPAC (homozygous mutant KRAS G12D human pancreatic cell line). Kind of assay: KRAS 3D-Cell Proliferation Assay, HPAC (Example 503). The settings on record: Homo sapiens, HPAC, 168 h, HPAC 3D culture, 7 days, CellTiter-Glo 3D; read-out: Prolif HPAC 3D ATP IC50. In outline:
as §1

Take `C[C@@H]1Oc2nc(-c3cc(N)c(F)cc3C(F)(F)F)c(F)c3nc(OC[C@@]45CCCN4C[C@H](F)C5)nc(c23)N2C[C@H]3CC[C@H](N3)[C@@H]12` [Compound 14, 2-fluoro-5-((5S,5aS,6S,9R)-1-fluoro-12-(((2R,7aS)-2-fluorotetrahydro-1H-pyrrolizin-7a(5H)-yl)methoxy)-5-methyl-5a,6,7,8,9,10-hexahydro-5H-4-oxa-3,10a,11,13,14-pentaaza-6,9-methanonaphtho[1,8-ab]heptalen-2-yl)-4-(trifluoromethyl)aniline]: the IC50 (in general, the concentration needed to halve the response being measured) in assay [1] came to 5.62 nM; in assay [2] it was 6210 nM; in assay [3], 2510 nM; in assay [4] it was 11.3 nM.
In the case of `Cc1cc(N)cc(-c2nc3c4c(nc(OC[C@@]56CCCN5C[C@H](F)C6)nc4c2F)N2C[C@H]4CC[C@H](N4)[C@H]2[C@H](C)O3)c1C(F)(F)F` [Compound 16, 3-((5S,5aS,6S,9R)-1-fluoro-12-(((2R,7aS)-2-fluorotetrahydro-1H-pyrrolizin-7a(5H)-yl)methoxy)-5-methyl-5a,6,7,8,9,10-hexahydro-5H-4-oxa-3,10a,11,13,14-pentaaza-6,9-methanonaphtho[1,8-ab]heptalen-2-yl)-5-methyl-4-(trifluoromethyl)aniline], the half-inhibitory concentration (IC50) was 1.3 nM in assay [1], at least 20000 nM in assay [2], 255 nM in assay [3] and 0.7 nM in assay [4].
In the case of `C[C@@H]1Oc2nc(-c3cc(N)cc(F)c3C(F)(F)F)c(F)c3nc(OC[C@@]45CCCN4C[C@H](F)C5)nc(c23)N2C[C@H]3CC[C@H](N3)[C@@H]12` [Compound 17, 3-fluoro-5-((5S,5aS,6S,9R)-1-fluoro-12-(((2R,7aS)-2-fluorotetrahydro-1H-pyrrolizin-7a(5H)-yl)methoxy)-5-methyl-5a,6,7,8,9,10-hexahydro-5H-4-oxa-3,10a,11,13,14-pentaaza-6,9-methanonaphtho[1,8-ab]heptalen-2-yl)-4-(trifluoromethyl)aniline], the IC50 in assay [1] came out at 1.71 nM; in assay [2], 7910 nM; in assay [3], 1340 nM; in assay [4], 0.62 nM.
On to `Cc1cc(-c2nc3c4c(nc(OC[C@@]56CCCN5C[C@H](F)C6)nc4c2F)N2C[C@H]4CC[C@H](N4)[C@H]2[C@H](C)O3)c(F)c(N)c1F` [Compound 18, 2,6-difluoro-3-((5S,5aS,6S,9R)-1-fluoro-12-(((2R,7aS)-2-fluorotetrahydro-1H-pyrrolizin-7a(5H)-yl)methoxy)-5-methyl-5a,6,7,8,9,10-hexahydro-5H-4-oxa-3,10a,11,13,14-pentaaza-6,9-methanonaphtho[1,8-ab]heptalen-2-yl)-5-methylaniline], for which the IC50 in assay [1] worked out at 5590 nM; in assay [2], 7910 nM; in assay [3], 20000 nM; in assay [4], 5220 nM.
For `Cc1c(F)c(N)cc(-c2nc3c4c(nc(OC[C@]56CCN5CC(F)(F)C6)nc4c2F)N2C[C@H]4CC[C@H](N4)[C@H]2[C@H](C)O3)c1C(F)(F)F` [Compound 24, 5-((5S,5aS,6S,9R)-12-(((R)-3,3-difluoro-1-azabicyclo[3.2.0]heptan-5-yl)methoxy)-1-fluoro-5-methyl-5a,6,7,8,9,10-hexahydro-5H-4-oxa-3,10a,11,13,14-pentaaza-6,9-methanonaphtho[1,8-ab]heptalen-2-yl)-2-fluoro-3-methyl-4-(trifluoromethyl)aniline] the same measures were 4.29 nM, 7870 nM, 6710 nM and 1.89 nM.
For `C[C@@H]1Oc2nc(-c3cc(O)cc4ccccc34)c(F)c3nc(OC[C@]45CCN4CC(F)(F)C5)nc(c23)N2C[C@H]3CC[C@H](N3)[C@@H]12` [Compound 25, 4-((5S,5aS,6S,9R)-12-(((R)-3,3-difluoro-1-azabicyclo[3.2.0]heptan-5-yl)methoxy)-1-fluoro-5-methyl-5a,6,7,8,9,10-hexahydro-5H-4-oxa-3,10a,11,13,14-pentaaza-6,9-methanonaphtho[1,8-ab]heptalen-2-yl)naphthalen-2-ol], the concentration for half-maximal inhibition (IC50) worked out at 464 nM in assay [1], 11000 nM in assay [2], 10700 nM in assay [3] and 78.8 nM in assay [4].
`Cc1c(F)c(N)cc(-c2nc3c4c(nc(OC[C@@H]5C[C@@H](F)CN5C)nc4c2F)N2C[C@H]4CC[C@H](N4)[C@H]2[C@H](C)O3)c1C(F)(F)F` [Compound 26, 2-Fluoro-5-((5S,5aS,6S,9R)-1-fluoro-12-(((2S,4R)-4-fluoro-1-methylpyrrolidin-2-yl)methoxy)-5-methyl-5a,6,7,8,9,10-hexahydro-5H-4-oxa-3,10a,11,13,14-pentaaza-6,9-methanonaphtho[1,8-ab]heptalen-2-yl)-3-methyl-4-(trifluoromethyl)aniline]: the IC50 in assay [1] was 5.19 nM; in assay [2], 7640 nM; in assay [3] it was 1540 nM; in assay [4], 3.24 nM.
For `C[C@@H]1Oc2nc(-c3cccc4cccc(Cl)c34)c(F)c3nc(OC[C@@]45CCCN4CC4(CC4(F)F)C5)nc(c23)N2C[C@H]3CC[C@H](N3)[C@@H]12` (stereo partly drawn) [Compound 27, (5S,5aS,6S,9R)-2-(8-chloronaphthalen-1-yl)-12-(((7a′S)-2,2-difluorodihydro-1′H,3′H-spiro[cyclopropane-1,2′-pyrrolizin]-7a′(5′H)-yl)methoxy)-1-fluoro-5-methyl-5a,6,7,8,9,10-hexahydro-5H-4-oxa-3,10a,11,13,14-pentaaza-6,9-methanonaphtho[1,8-ab]heptalene] the same measures were 32.1 nM, 2780 nM, 2390 nM and 68.1 nM.
With `CCc1cccc2cc(O)cc(-c3nc4c5c(nc(OCC67COC(C6)C7)nc5c3F)N3C[C@H]5CC[C@H](N5)[C@H]3[C@H](C)O4)c12` [Compound 28, 4-((5S,5aS,6S,9R)-12-((2-oxabicyclo[2.1.1]hexan-4-yl)methoxy)-1-fluoro-5-methyl-5a,6,7,8,9,10-hexahydro-5H-4-oxa-3,10a,11,13,14-pentaaza-6,9-methanonaphtho[1,8-ab]heptalen-2-yl)-5-ethylnaphthalen-2-ol], the IC50 stood at 363 nM in assay [1], 11000 nM in assay [2], 20000 nM in assay [3] and 257 nM in assay [4].
As for `Cc1c(F)c(N)cc(-c2nc3c4c(nc(OCC56CCN5C[C@H](F)C6)nc4c2F)N2C[C@H]4CC[C@H](N4)[C@H]2[C@H](C)O3)c1C(F)(F)F` (stereo partly drawn) [Compound 29, 2-fluoro-5-((5S,5aS,6S,9R)-1-fluoro-12-(((3R)-3-fluoro-1-azabicyclo[3.2.0]heptan-5-yl)methoxy)-5-methyl-5a,6,7,8,9,10-hexahydro-5H-4-oxa-3,10a,11,13,14-pentaaza-6,9-methanonaphtho[1,8-ab]heptalen-2-yl)-3-methyl-4-(trifluoromethyl)aniline], the IC50 in assay [1] worked out at 4.98 nM; in assay [2] it was 8190 nM; in assay [3] it was 6110 nM; in assay [4], 7.76 nM.
In the same order, the values of `C[C@@H]1Oc2nc(-c3cncc4ccccc34)c(F)c3nc(OC[C@@]45CCCN4CC4(CC4(F)F)C5)nc(c23)N2C[C@H]3CC[C@H](N3)[C@@H]12` (stereo partly drawn) [Compound 30, (5S,5aS,6S,9R)-12-(((7a′S)-2,2-difluorodihydro-1′H,3′H-spiro[cyclopropane-1,2′-pyrrolizin]-7a′(5′H)-yl)methoxy)-1-fluoro-2-(isoquinolin-4-yl)-5-methyl-5a,6,7,8,9,10-hexahydro-5H-4-oxa-3,10a,11,13,14-pentaaza-6,9-methanonaphtho[1,8-ab]heptalene] are 166 nM, 3810 nM, 2890 nM and 154 nM.
In the case of `Cc1c(F)c(N)cc(-c2nc3c4c(nc(OC[C@@H]5CC[C@H]6COCCN65)nc4c2F)N2C[C@H]4CC[C@H](N4)[C@H]2[C@H](C)O3)c1C(F)(F)F` [Compound 31, 2-fluoro-5-((5S,5aS,6S,9R)-1-fluoro-12-(((6S,8aS)-hexahydro-1H-pyrrolo[2,1-c][1,4]oxazin-6-yl)methoxy)-5-methyl-5a,6,7,8,9,10-hexahydro-5H-4-oxa-3,10a,11,13,14-pentaaza-6,9-methanonaphtho[1,8-ab]heptalen-2-yl)-3-methyl-4-(trifluoromethyl)aniline], the IC50 in assay [1] came out at 1.64 nM; in assay [2], 3790 nM; in assay [3], 423 nM; in assay [4], 0.808 nM.
In the same order, the values of `Cc1cc(N)c(F)c(-c2nc3c4c(nc(OC[C@@]56CCCN5C[C@H](F)C6)nc4c2F)N2C[C@H]4CC[C@H](N4)[C@H]2[C@H](C)O3)c1C(F)(F)F` [Compound 34, 2-Fluoro-3-((5S,5aS,6S,9R)-1-fluoro-12-(((2R,7aS)-2-fluorotetrahydro-1H-pyrrolizin-7a(5H)-yl)methoxy)-5-methyl-5a,6,7,8,9,10-hexahydro-5H-4-oxa-3,10a,11,13,14-pentaaza-6,9-methanonaphtho[1,8-ab]heptalen-2-yl)-5-methyl-4-(trifluoromethyl)aniline] are 0.692 nM, 6950 nM, 340 nM and 0.54 nM.
